Data reported in US8927544B2, “Benzofuran-2-sulfonamides derivatives as chemokine receptor modulators” (Allergan, Inc., priority 2012, dated 2015).
Like-named read-outs stand apart in the source and are kept apart here.

Molecular target: T1, CCR2 (Homo sapiens, UniProt P41597)
T1 construct: expressed in transfected cells
Assay: compound-induced calcium activity on the FLIPR Tetra in HEK-Gqi5 cells stably expressing CCR2
Assay type: cell-based
Description: HEK-Gqi5 cells stably expressing CCR2 were cultured in DMEM high glucose, 10% FBS, 1% PSA, 400 μg/ml geneticin and 50 μg/ml hygromycin. Appropriate positive control chemokines (MCP-1, MIP1A or RANTES) was used as the positive control agonist for screening compound-induced calcium activity assayed on the FLIPR^Tetra. The drug plates were prepared in 384-well microplates using the EP3 and the MultiPROBE robotic liquid handling systems. Compounds were synthesized and tested for CCR2 activity.

[1] = HEK-Gqi5 cells stably expressing CCR2, calcium activity, FLIPR Tetra
[2] = HEK-Gqi5 cells stably expressing CCR2, calcium activity, FLIPR Tetra, read-out: CCR2 IC50

T1 sequence (P41597 whole entry, species assumed): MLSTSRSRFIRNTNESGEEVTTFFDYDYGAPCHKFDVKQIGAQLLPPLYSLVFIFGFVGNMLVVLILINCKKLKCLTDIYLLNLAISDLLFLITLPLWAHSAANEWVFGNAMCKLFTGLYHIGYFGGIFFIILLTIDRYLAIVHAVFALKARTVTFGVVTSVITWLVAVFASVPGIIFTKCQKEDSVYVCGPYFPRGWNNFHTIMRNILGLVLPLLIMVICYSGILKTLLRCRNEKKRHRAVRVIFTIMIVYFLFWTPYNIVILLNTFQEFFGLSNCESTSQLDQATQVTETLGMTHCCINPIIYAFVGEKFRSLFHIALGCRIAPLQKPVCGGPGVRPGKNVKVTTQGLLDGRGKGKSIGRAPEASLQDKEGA

| Structure (SMILES) | CCR2 ANTAGONISM (%) [1] | IC50 [2] | IC50 |
| --- | --- | --- | --- |
| O=C(Cc1ccccc1)c1ccc(Cl)cc1NS(=O)(=O)c1cc2ccccc2o1 [Compound 17, N-[5-Chloro-2-(phenylacetyl)phenyl]-1-benzofuran-2-sulfonamide] | 79% | 183 nM | – |
| O=S(=O)(Nc1cc(Cl)ccc1OCc1ccccc1)c1cc2ccccc2o1 [Compound 20, N-[2-(Benzyloxy)-5-chlorophenyl]-1-benzofuran-2-sulfonamide] | 87% | 1630 nM | – |
| N#Cc1ccc(Cl)cc1NS(=O)(=O)c1cc2ccccc2o1 [Compound 16, N-(5-Chloro-2-cyanophenyl)-1-benzofuran-2-sulfonamide] | 102% | 409 nM | – |
| O=S(=O)(Nc1cc(F)ccc1[S+]([O-])c1ccccc1)c1cc2ccccc2o1 (stereo not drawn) [Compound 28, N-[5-Fluoro-2-(phenylsulfinyl)phenyl]-1-benzofuran-2-sulfonamide] | 91% | 317 nM | – |
| Cc1ccc(Cl)cc1NS(=O)(=O)c1cc2ccccc2o1 [Compound 2, N-(5-Chloro-2-methylphenyl)-1-benzofuran-2-sulfonamide] | 84% | 359 nM | – |
| O=S(=O)(Nc1cc(Cl)ccc1S(=O)(=O)c1ccccc1)c1cc2ccccc2o1 [Compound 13, N-[5-Chloro-2-(phenylsulfonyl)phenyl]-1-benzofuran-2-sulfonamide] | 78% | 1970 nM | – |
| O=S(=O)(Nc1cc(Cl)ccc1Sc1ccccc1)c1cc2ccccc2o1 [Compound 12, N-[5-Chloro-2-(phenylsulfanyl)phenyl]-1-benzofuran-2-sulfonamide] | 90% | 124 nM | – |
| COc1ccc(Cl)cc1NS(=O)(=O)c1cc2ccccc2o1 [Compound 1, N-(5-Chloro-2-methoxyphenyl)benzofuran-2-sulfonamide] | 97% | 512 nM | – |
| O=C(Nc1ccccc1)c1ccc(Cl)cc1NS(=O)(=O)c1cc2ccccc2o1 [Compound 15, 2-[(1-Benzofuran-2-ylsulfonyl)amino]-4-chloro-N-phenylbenzamide] | 95% | 328 nM | – |
| CO/N=C(/Cc1ccccc1)c1ccc(Cl)cc1NS(=O)(=O)c1cc2ccccc2o1 [Compound 18, N-{5-Chloro-2-[(1Z)—N-methoxy-2-phenylethanimidoyl]phenyl}-1-benzofuran-2-sulfonamide] | 76% | – | – |
| C#Cc1ccc(Cl)cc1NS(=O)(=O)c1cc2ccccc2o1 [Compound 6, N-(5-Chloro-2-ethynylphenyl)-1-benzofuran-2-sulfonamide] | 93% | 117 nM | – |
| O=C(O)c1ccccc1Oc1ccc(Cl)cc1NS(=O)(=O)c1cc2ccccc2o1 [Compound 11, 2-{2-[(1-Benzofuran-2-ylsulfonyl)amino]-4-chlorophenoxy}benzoic acid] | 97% | 60 nM | – |
| Cc1ccc(S(=O)(=O)c2ccccc2)c(NS(=O)(=O)c2cc3ccccc3o2)c1 [Compound 26, N-[5-Methyl-2-(phenylsulfonyl)phenyl]-1-benzofuran-2-sulfonamide] | 38% | – | – |
| O=S(=O)(Nc1cc(Cl)ccc1C#Cc1ccccc1)c1cc2ccccc2o1 [Compound 21, N-[5-Chloro-2-(phenylethynyl)phenyl]-1-benzofuran-2-sulfonamide] | 30% | – | – |
| O=S(=O)(Nc1cc(F)ccc1Sc1ccccc1)c1cc2ccccc2o1 [Compound 27, N-[5-Fluoro-2-(phenylsulfanyl)phenyl]-1-benzofuran-2-sulfonamide] | 74% | – | – |
| Cc1ccc([S+]([O-])c2ccccc2)c(NS(=O)(=O)c2cc3ccccc3o2)c1 (stereo not drawn) [Compound 25, N-[5-Methyl-2-(phenylsulfinyl)phenyl]-1-benzofuran-2-sulfonamide] | 92% | 2880 nM | – |
| COC(=O)c1ccccc1Oc1ccc(Cl)cc1NS(=O)(=O)c1cc2ccccc2o1 [Compound 10, Methyl 2-{2-[(1-benzofuran-2-ylsulfonyl)amino]-4-chlorophenoxy}benzoate] | 98% | 1020 nM | – |
| O=S(=O)(Nc1cc(Cl)ccc1[S+]([O-])c1ccccc1)c1cc2ccccc2o1 (stereo not drawn) [Compound 14, N-[5-Chloro-2-(phenylsulfinyl)phenyl]-1-benzofuran-2-sulfonamide] | 105% | 6 nM | – |
| O=S(=O)(Nc1cc(F)ccc1S(=O)(=O)c1ccccc1)c1cc2ccccc2o1 [Compound 29, N-[5-Fluoro-2-(phenylsulfonyl)phenyl]-1-benzofuran-2-sulfonamide] | 82% | 2620 nM | – |
| O=S(=O)(Nc1cc(Cl)ccc1CCc1ccccc1)c1cc2ccccc2o1 [Compound 22, N-[5-Chloro-2-(2-phenylethyl)phenyl]-1-benzofuran-2-sulfonamide] | 84% | – | – |
| Cc1ncccc1Oc1ccc(Cl)cc1NS(=O)(=O)c1cc2ccccc2o1 [Compound 9, N-{5-Chloro-2-[(2-methylpyridin-3-yl)oxy]phenyl}-1-benzofuran-2-sulfonamide] | 96% | 365 nM | – |
| CCOc1ccc(Cl)cc1NS(=O)(=O)c1cc2ccccc2o1 [Compound 5, N-(5-Chloro-2-ethoxyphenyl)-1-benzofuran-2-sulfonamide] | 73% | 1660 nM | – |
| O=S(=O)(Nc1cc(Cl)ccc1OC(F)(F)F)c1cc2ccccc2o1 [Compound 3, N-[5-Chloro-2-(trifluoromethoxy)phenyl]-1-benzofuran-2-sulfonamide] | 95% | 195 nM | – |
| O=C1CCN(C(=O)c2ccc(Cl)cc2NS(=O)(=O)c2cc3ccccc3o2)CC1 [Compound 7, N-{5-Chloro-2-[(4-oxopiperidin-1-yl)carbonyl]phenyl}-1-benzofuran-2-sulfonamide] | 93% | – | 110 nM |
| O=C(O)c1ccccc1COc1ccc(Cl)cc1NS(=O)(=O)c1cc2ccccc2o1 [Compound 31, 2-({2-[(1-Benzofuran-2-ylsulfonyl)amino]-4-chlorophenoxy}methyl)benzoic Acid] | 99% | 27 nM | – |
| Cc1ccc(Sc2ccccc2)c(NS(=O)(=O)c2cc3ccccc3o2)c1 [Compound 24, N-[5-Methyl-2-(phenylsulfanyl)phenyl]-1-benzofuran-2-sulfonamide] | 41% | – | – |
| COC(=O)c1ccc(Cl)cc1NS(=O)(=O)c1cc2ccccc2o1 [Compound 4, Methyl 2-[(1-benzofuran-2-ylsulfonyl)amino]-4-chlorobenzoate] | 95% | 1380 nM | – |
| O=S(=O)(Nc1cc(Cl)ccc1/C(Cc1ccccc1)=N\O)c1cc2ccccc2o1 [Compound 19, N-{5-Chloro-2-[(1Z)—N-hydroxy-2-phenylethanimidoyl]phenyl}-1-benzofuran-2-sulfonamide] | 72% | – | – |
| O=C(c1ccc(Cl)cc1NS(=O)(=O)c1cc2ccccc2o1)N1CCOCC1 [Compound 8, N-[5-Chloro-2-(morpholin-4-ylcarbonyl)phenyl]-1-benzofuran-2-sulfonamide] | 84% | 569 nM | – |
